Results from paper PMC3577903, “Staphylococcus aureus FepA and FepB Proteins Drive Heme Iron Utilization in Escherichia coli” (PLoS ONE, 2013).

Target: T1, FepB (FepB-6His, apo-FepB) (Staphylococcus aureus, UniProt Q2G130)
T1 construct: gene SAOUHSC_00326; Tat signal peptide removed; six-histidine tag kept (pET22b NdeI/XhoI); expressed in E. coli; apo form monomeric after gel filtration (heme-loaded form dimeric)
Assay: UV-visible absorbance titration (Soret band […] nm), one-site fit
Format: binding
Settings: apo-FepB 2.2 µM, 50 mM Tris-HCl pH 8.0, 0.2 M NaCl, room temperature; stoichiometry 0.9; PPIX in DMSO; stoichiometry 0.7

T1 sequence (Q2G130 entry or part of it): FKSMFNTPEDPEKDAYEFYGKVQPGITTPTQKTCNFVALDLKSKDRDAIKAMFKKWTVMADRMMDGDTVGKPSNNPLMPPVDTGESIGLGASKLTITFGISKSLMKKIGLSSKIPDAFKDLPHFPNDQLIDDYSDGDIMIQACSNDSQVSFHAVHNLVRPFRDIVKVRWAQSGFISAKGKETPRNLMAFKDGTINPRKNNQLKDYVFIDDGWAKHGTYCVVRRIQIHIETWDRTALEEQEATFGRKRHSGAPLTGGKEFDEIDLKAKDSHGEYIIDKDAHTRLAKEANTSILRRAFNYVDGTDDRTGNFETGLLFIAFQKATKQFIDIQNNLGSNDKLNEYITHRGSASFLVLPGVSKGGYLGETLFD

With `C=CC1=C(C)c2cc3[nH]c(cc4nc(cc5[nH]c(cc1n2)c(C)c5CCC(=O)O)C(CCC(=O)O)=C4C)c(C)c3C=C` [PPIX] as the compound, how does the Kd read?
The Kd was 21.1±5,2 nM.
